Measurements published in patent US8906919B2, “Treatment of non-neuronal and non-myocardial cell, tissue and organ damage and associated pain with persistent sodium current blockers” (Ozteo Pty Ltd, priority 2009, dated 2014).
Where two headings read alike, the source gives them in different places.

Columns and labels:
[1] = tested on: kidney tissue; settings: rat, iv before ischaemia (riluzole 5 mg/kg, lidocaine 1 mg/kg, lamotrigine 20 mg/kg)
Protocol: (§1) Additional studies were performed on kidney tissue in 48 isoflurane-anaesthetised, male Wistar albino rats (300-350 g). […] A further ten minutes was allowed for drug circulation prior to the induction of ischaemia. Tissue ischaemia was produced in all animals by occluding the renal artery to the left kidney. Immediately prior to occlusion, a 1,000 unit bolus of IV heparin was injected to prevent blood clotting and to permit reperfusion. Occlusion was maintained for 3 hours following which, in 6 animals in each group, the occlusion was released and reperfusion of the kidney was allowed. Samples of reperfused tissue were excised 45 minutes following reperfusion. Samples of non-reperfused ischaemic tissue were excised 3 hours post occlusion. Samples of ischaemic tissue and of reperfused tissue were taken from different animals. Samples of non-ischaemic, non-treated tissue were excised from the right kidney of the non-treated group.
In addition, persistent sodium current blockade was assessed for its affect on kidney tissue DNA fragmentation during ischaemia and reperfusion. […] All panels were illuminated by light with wavelength around 520 nm to show DNA fragmentation.

[2] = tested on: kidney tissue; settings: rat; for kidney glutathione levels compared with non-treated reperfused group: 3 h ischaemia and 45 min reperfusion (FIG. 9)
Protocol: as §1
Persistent sodium current blockade was evaluated for its effect on kidney tissue glutathione levels during ischaemia and reperfusion.

[3] = 3 hours of ischaemia and 45 minutes of reperfusion (FIG. 10)
[4] = 3 hours of ischaemia and no reperfusion (FIG. 10)
[5] = iv before ischaemia (riluzole 5 mg/kg, lidocaine 1 mg/kg, lamotrigine 20 mg/kg)

Row | Compound | damaged nuclei (DNA fragmentation) in renal tubules compared with non-treated tissue [1, 3] | damaged nuclei (DNA fragmentation) in renal tubules compared with non-treated tissue [1, 4] | kidney glutathione levels compared with non-treated reperfused group [2, 5] | kidney glutathione levels compared with non-treated, non-ischaemic and non-reperfused group ([2]; iv before ischaemia (riluzole 5 mg/kg, lidocaine 1 mg/kg), 3 h ischaemia and 45 min reperfusion (FIG. 9, vs 901)) | kidney glutathione levels after ischaemia ([2]; iv before ischaemia (riluzole 5 mg/kg, lidocaine 1 mg/kg, lamotrigine 20 mg/kg), 3 h renal artery occlusion, no reperfusion (FIG. 8))
1 | Nc1nnc(-c2cccc(Cl)c2Cl)c(N)n1 [lamotrigine] | the reduction in damaged nuclei is still significant | the reduction in damaged nuclei is still significant | substantially higher |  | 
2 | CCN(CC)CC(=O)Nc1c(C)cccc1C [lidocaine] | considerably fewer damaged nuclei | considerably fewer damaged nuclei | significantly higher | not significantly different | not significantly reduced
